# “And” between values parts separate entries of the source, which are not always exact repeats. Identical values can stand only once.
# Experiments:
# [1] = system: OVCAR8 xenografted tumor tissues; assay: TUNEL assay in intraperitoneal xenografted tumor tissues, OVCAR8; format: in vivo, human EOC cells in BALB/c-Nude mice; conditions: for TUNEL+ cell (%): #1-#6; for TUNEL assay: animal model OVCAR8
# Method: (§1) In the intraperitoneal tumor model, 1 × 10^6 of the indicated cells stably expressing luciferase were injected intraperitoneally into the mice. Treatment with saline (Vehicle), CDDP (5 mg/kg, 3 times per week for 1 week), CBP1 (10 mg/kg, once in 2 days), or a combination of CDDP (5 mg/kg, 3 times per week for 1 week) and CBP1 (10 mg/kg, once in 2 days) was initiated when the bioluminescence signal reached 2 × 10^7 p/s/cm^2/sr for 6 weeks of continuous treatment cycles. The mice were sacrificed when they became moribund, as determined by an observer blinded to the treatment. Finally, their tumors were excised for qRT‐PCR and Western blotting.
# (§2) TUNEL Assay: The TUNEL staining procedure was conducted on the DeadEnd Fluorometric TUNEL System (#G3250; Promega), according to the manufacturer’s instructions. In brief, paraffin-embedded sections were baked at 65°C for 60 min, followed by three washes in a xylene bath. The sections were then washed in a series of absolute ethanol, 95% ethanol, and 70% ethanol, and finally, in PBS. Then, each section was treated with proteinase K at 37°C for 30 min and washed three times with PBS. Thereafter, the sections were incubated with […] (containing Biotin-11-dUTP and TdT Enzyme) at 37 ℃ for 1 h in the dark, followed by three PBS washes. The samples were subsequently incubated with streptavidin–fluorescein at 37 ℃ for 30 min in the dark, followed by three washes with PBS. DAPI was used to stain the nucleus. Finally, the experimental outcomes were observed under a fluorescence microscope, and the percentages of TUNEL-positive cells were quantified from 10 randomly selected fields.
# [2] = system: OVCAR3 xenografted tumor tissues; assay: TUNEL assay in intraperitoneal xenografted tumor tissues, OVCAR3; format: in vivo, human EOC cells in BALB/c-Nude mice; conditions: for TUNEL+ cell (%): CDDP-treated mice, #1-#6
# Method: as §1, §2
# SKOV3 cells [3] = assay: Cell Counting Kit-8 viability, SKOV3; format: cell-based, human; conditions: SPC25-silenced SKOV3
# Method: (§3) Cell Viability Assay: The indicated cells were seeded into 96-well plates at a density of 4 × 10^3 cells per well. Next, the Cell Counting Kit-8 reagent (Dojindo) was added to the wells, followed by incubation at 37°C for 2 h in the dark, after which the optical density at 450 nm was determined on a microplate reader (EPOCH2; BioTek, USA). Each cell line was represented using triplicate wells, and the experiment was repeated three times.
# OVCAR8 cells [4] = assay: Intraperitoneal tumor model, bioluminescence, OVCAR8; format: in vivo, human EOC cells in BALB/c-Nude mice; conditions: SPC25-silenced OVCAR8, CDDP
# Description: (§4) Subsequently, we selected 4 representative EOC cell lines (Figure S1F,G, Supporting Information) and validated the role of SPC25 in mediating platinum resistance in EOC through a series of in vitro and in vivo experiments. […] To further establish an EOC mouse model, we intraperitoneally injected BALB/c‐Nude mice with EOC cells with stable luciferase expression. CDDP treatment (three times per week, a week as a cycle) was initiated when the bioluminescence signal reached 2 × 10^7 p/s/cm^2/sr.
# as §1
# SKOV3 cells [5] = assay: Annexin V/PI apoptosis, SKOV3; format: cell-based, human; conditions: replicates #1-#3
# Method: (§5) Fluorescence-Activated Cell Sorting Assay: For apoptosis analysis, we used an Annexin V-FITC/PI Apoptosis Detection Kit (#A211-01; Vazyme Biotech), according to the manufacturer’s instructions. We considered the total proportion of Annexin V-positive cells (quadrants II and III) to be the apoptotic rate, regardless of the PI status. All samples were analyzed on a flow cytometer (cytoFLEX LX; Beckman Coulter, Indianapolis, IN, USA), and percentages of apoptotic cells were analyzed using CytExpert (Beckman Coulter).
# OVCAR8 cells [6] = assay: Annexin V/PI apoptosis, OVCAR8; format: cell-based, human; conditions: replicates #1-#3
# Method: as §5
# OVCAR3 cells [7] = assay: Intraperitoneal tumor model, bioluminescence, OVCAR3; format: in vivo, human EOC cells in BALB/c-Nude mice; conditions: SPC25-overexpressing OVCAR3, 6 weeks CDDP
# Description: as §4, §1
# OVCAR8 cells [8] = assay: Survival of intraperitoneal tumor-bearing nude mice, OVCAR8; format: in vivo, human EOC cells in BALB/c-Nude mice; design: key to Survival status: 0: Alive; 1: Dead; conditions: for Survival status / Survival time (Days after CDDP treatment): Balb/c Nude mice; for Survival time (Days after CDDP treatment): >= means alive at this day
# Description: as §4, §1
# SPC25 = assay: Expression of SPC25 across different generation CDX tumor of Blab/c Nude mice in CDDP group (Ct); format: in vivo; conditions: for Gapdh (Ct): Gapdh_rep1-3, single replicates; for Expression of SPC25 (Ct): SPC25_rep1-3, single replicates
# Description: Supplement ADVS-11-2406688-s001.zip/SourceData.xlsx, sheet "Fig1E-1G,S1F" | column: Expression of SPC25 in CDDP-resistant and Parental CDX tumor of Blab/c Nude mice (Ct)
# OVCAR8 cells [9] = assay: Cell Counting Kit-8 viability, OVCAR8; format: cell-based, human; conditions: SPC25-silenced OVCAR8
# Method: as §3
# COV644 cells = assay: Annexin V/PI apoptosis, COV644; format: cell-based, human; conditions: for PI+/AnnexinV+: replicates #1-#3
# Method: as §5
# OVCAR3 cells [10] = assay: Cell Counting Kit-8 viability, OVCAR3; format: cell-based, human; conditions: SPC25-overexpressing OVCAR3
# Method: as §3
structure (smiles),measurement,setting,value
"[NH2][Pt]([NH2])([Cl])[Cl] [CDDP, cisplatin]",TUNEL+ cell (%),"[1]; OVCAR8 sh-SPC25#1, CDDP-treated mice",27.13% and 29.66% and 28.67% and 22.53% and 32.03% and 26.06%
same,TUNEL+ cell (%),"[1]; OVCAR8 sh-Scramble, CDDP-treated mice",5.89% and 11.46% and 4.76% and 9.62% and 7.34% and 8.41%
same,TUNEL assay,[1]; animal #1,10.02%
same,TUNEL assay,[1]; animal #2,8.97%
same,TUNEL assay,[1]; animal #3,6.23%
same,TUNEL assay,[1]; animal #4,11.92%
same,TUNEL assay,[1]; animal #5,7.56%
same,TUNEL assay,[1]; animal #6,8.03%
same,TUNEL assay,[1]; animal #7,7.63%
same,TUNEL+ cell (%),[2]; OVCAR3 SPC25-overexpressing,8.84% and 3.44% and 6.27% and 4.43% and 7.25% and 8.02%
same,TUNEL+ cell (%),[2]; OVCAR3 Vector,31.16% and 27.27% and 21.88% and 26.01% and 32.74% and 29.56%
same,TUNEL-positive cells,"[2]; SPC25-overexpressing OVCAR3, CDDP",reduced number
same,CDDP sensitivity,SKOV3 cells [3],enhanced CDDP sensitivity
same,"CDDP sensitivity, apoptotic index and survival",OVCAR8 cells [4],"increase in CDDP sensitivity and apoptotic index, as well as prolonged survival"
same,PI+/AnnexinV+,"SKOV3 cells [5]; SKOV3 Scramble, CDDP 10μM",8.18 and 6.89 and 9.75
same,PI+/AnnexinV+,"SKOV3 cells [5]; SKOV3 sh-SPC25#1, CDDP 10μM",30.36 and 26.95 and 22.58
same,PI+/AnnexinV+,"SKOV3 cells [5]; SKOV3 sh-SPC25#2, CDDP 10μM",29.63 and 24.64 and 23.77
same,PI+/AnnexinV+,"OVCAR8 cells [6]; OVCAR8 Scramble, CDDP 10μM",7.42 and 8.61 and 9.34
same,PI+/AnnexinV+,"OVCAR8 cells [6]; OVCAR8 sh-SPC25#1, CDDP 10μM",24.86 and 27.38 and 21.74
same,PI+/AnnexinV+,"OVCAR8 cells [6]; OVCAR8 sh-SPC25#2, CDDP 10μM",24.57 and 21.02 and 29.26
same,CDDP resistance of tumors,OVCAR3 cells [7],notable increase in CDDP resistance
same,Survival status,"OVCAR8 cells [8]; at the day of E151, animal 1",1
same,Survival status,"OVCAR8 cells [8]; at the day of E152, animal 2",1
same,Survival status,"OVCAR8 cells [8]; at the day of E153, animal 3",1
same,Survival status,"OVCAR8 cells [8]; at the day of E154, animal 4",1
same,Survival status,"OVCAR8 cells [8]; at the day of E155, animal 5",1
same,Survival status,"OVCAR8 cells [8]; at the day of E156, animal 6",1
same,Survival status,"OVCAR8 cells [8]; at the day of E157, animal 7",1
same,Survival time (Days after CDDP treatment),OVCAR8 cells [8]; animal 1,59 days
same,Survival time (Days after CDDP treatment),OVCAR8 cells [8]; animal 2,50 days
same,Survival time (Days after CDDP treatment),OVCAR8 cells [8]; animal 3,52 days
same,Survival time (Days after CDDP treatment),OVCAR8 cells [8]; animal 4,56 days
same,Survival time (Days after CDDP treatment),OVCAR8 cells [8]; animal 5,57 days
same,Survival time (Days after CDDP treatment),OVCAR8 cells [8]; animal 6,60 days
same,Survival time (Days after CDDP treatment),OVCAR8 cells [8]; animal 7,61 days
same,"Survival, days after CDDP treatment","OVCAR8 cells [8]; OVCAR8 sh-SPC25#1, status 0, individual mice",63 days and 79 days and 89 days
same,"Survival, days after CDDP treatment","OVCAR8 cells [8]; OVCAR8 sh-SPC25#1, status 1, individual mice",72 days and 59 days and 60 days
same,"Survival, days after CDDP treatment","OVCAR8 cells [8]; OVCAR8 sh-Scramble, status 1, individual mice",54 days and 50 days and 55 days and 53 days and 57 days
same,Gapdh (Ct),SPC25; 1st generation,17.013 Ct and 17.354 Ct and 17.197 Ct
same,Expression of SPC25 (Ct),SPC25; 1st generation,27.496 Ct and 27.737 Ct and 27.628 Ct
same,Gapdh (Ct),SPC25; 2nd generation,16.968 Ct and 16.875 Ct and 17.154 Ct
same,Expression of SPC25 (Ct),SPC25; 2nd generation,26.835 Ct and 27.032 Ct and 26.963 Ct
same,Gapdh (Ct),SPC25; 3rd generation,16.826 Ct and 17.002 Ct and 16.952 Ct
same,Expression of SPC25 (Ct),SPC25; 3rd generation,26.448 Ct and 26.397 Ct and 26.314 Ct
same,Gapdh (Ct),SPC25; 4th generation,16.654 Ct and 16.763 Ct and 16.924 Ct
same,Expression of SPC25 (Ct),SPC25; 4th generation,25.574 Ct and 25.623 Ct and 25.706 Ct
same,CDDP sensitivity,OVCAR8 cells [9],enhanced CDDP sensitivity
same,PI+/AnnexinV+,"COV644 cells; COV644 SPC25, CDDP 10μM",9.53 and 5.89 and 7.71
same,PI+/AnnexinV+,"COV644 cells; COV644 Vector, CDDP 10μM",23.38 and 26.97 and 27.94
same,CDDP-induced apoptosis,COV644 cells; SPC25-overexpressing COV644,considerably reduced
same,cell growth in presence of CDDP,OVCAR3 cells [10],significantly promoted growth
